In patent publication US20150291565A1, “INDOLE COMPOUNDS AND THEIR USE AS ANTIMICROBIALS” (Memorial Sloan-Kettering Cancer Center, priority 2012, published 2015):
In brackets after ≈: the same amount, converted by molar mass. Where two headings read alike, the source gives them in different places.

How the values were obtained:
E. faecium CT-26 = test: Broth dilution MIC, E. faecium CT-26; format: cell-based; settings: Enterococcus faecium
K. pneumoniae ATCC 51503 = test: Broth dilution MIC, K. pneumoniae ATCC 51503; format: cell-based; settings: Klebsiella pneumoniae
P. aeruginosa ATCC 9027 = test: Broth dilution MIC, P. aeruginosa ATCC 9027; format: cell-based; settings: Pseudomonas aeruginosa
MRSA = test: Disk diffusion assay, zone of inhibition, MRSA; format: cell-based, Staphylococcus aureus; settings: disk diffusion zone of inhibition
E. coli ECM 1694 = test: Broth dilution MIC, E. coli ECM 1694; format: cell-based; settings: Escherichia coli
[1] = system: S. pneumoniae ATCC 700674 (PRSP); test: Broth dilution MIC, S. pneumoniae ATCC 700674; format: cell-based; settings: Streptococcus pneumoniae
K. pneumoniae ATCC 13883 = test: Broth dilution MIC, K. pneumoniae ATCC 13883; format: cell-based; settings: Klebsiella pneumoniae
M. smegmatis (mc2155) = test: Disk diffusion assay, zone of inhibition, M. smegmatis; format: cell-based; settings: disk diffusion zone of inhibition
[2] = system: E. faecalis ATCC 29212 (VRE); test: Broth dilution MIC, E. faecalis ATCC 29212; format: cell-based
[3] = system: S. aureus ATCC 29213 (MSSA); test: Broth dilution MIC, S. aureus ATCC 29213; format: cell-based; settings: Staphylococcus aureus
[4] = system: S. aureus ATCC 33591 (MRSA); test: Broth dilution MIC, S. aureus ATCC 33591; format: cell-based; settings: for MIC: Staphylococcus aureus
E. coli ATCC 25922 = test: Broth dilution MIC, E. coli ATCC 25922; format: cell-based; settings: Escherichia coli
C. albicans ATCC 14053 = test: Broth dilution MIC, C. albicans ATCC 14053; format: cell-based; settings: Candida albicans, ATCC14053; Table 1; range 64 down to 0.12 μg/ml
Description: In vitro Anti-bacterial & Anti-fungal Activity Assay: All test compounds were prepared as 6.4 mg/ml stock solutions in DMSO and further diluted according to the NCCLS M7-A6 (Page 5) document with sterile water or appropriate diluent. A working stock of 256 μg/ml was used to do 1:2 serial dilutions in 96-well plates. […] The inoculums were prepared by making a direct sterile water suspension of isolated colonies from 18 to 24 hr agar plates for all organisms (Mueller Hinton, Blood Agar or SDA plates). Each bacterial suspension was adjusted to read between 0.09 and 0.11 absorbance at 620 nm. […] These were further diluted 1/100 in appropriate broth for inoculating the 96-well plates. The C. albicans suspension was adjusted to read between 70 and 75% Transmittance at 530 nm and then diluted 1/500 in RPMI+MOPS broth. All aerobic bacterial and fungal plates were incubated for 18 hrs. at 35° C. […] Plates were read using a Beckman Automated Plate Reader at 650 nm. Readings were confirmed by visual examination of plates. (See Table 1, Table 2, Table 3, and Table 4). […] It is important to note that positive results against C. albicans are often indicative of broad spectrum antifungal activity, while negative results are not necessarily conclusory of a lack of activity against other fungus.

S. aureus BAA-39 (MDR) = test: Broth dilution MIC, S. aureus BAA-39; format: cell-based; settings: for MIC: Staphylococcus aureus, BAA39
[5] = system: S. pneumoniae ATCC 6301 (PSSP); test: Broth dilution MIC, S. pneumoniae ATCC 6301; format: cell-based; settings: Streptococcus pneumoniae
[6] = system: E. faecium ATCC 700221 (VRE); test: Broth dilution MIC, E. faecium ATCC 700221; format: cell-based
[7] = CT26, Table 1, range 64 down to 0.12 μg/ml, read-out: MIC E. faecium CT-26
[8] = CT26, Table 2, broth dilution MIC in ug/ml, read-out: MIC E faecium CT-25
[9] = ATCC51503, Table 1, range 64 down to 0.12 μg/ml, read-out: MIC K. pneumoniae ATCC 51503
[10] = ATCC51503, Table 2, broth dilution MIC in ug/ml, read-out: MIC K pneumonia ATCC 51503
[11] = ATCC 9026 / ATCC 9027, Table 2, broth dilution MIC in ug/ml, read-out: MIC P aeruginosa ATCC 9026
[12] = ATCC9027, Table 1, range 64 down to 0.12 μg/ml, read-out: MIC P. aeruginosa ATCC 9027
[13] = ECM1694, Table 1, range 64 down to 0.12 μg/ml, read-out: MIC E. coli ECM 1694
[14] = ECM1694, Table 2, broth dilution MIC in ug/ml, read-out: MIC E. coli ECM 1693
[15] = Table 1, range 64 down to 0.12 μg/ml, read-out: MIC S. pneumoniae ATCC 700674
[16] = Table 2, broth dilution MIC in ug/ml, read-out: MIC S pneumonia ATCC 700674 PRSP
[17] = ATCC13883, Table 1, range 64 down to 0.12 μg/ml, read-out: MIC K. pneumoniae ATCC 13883
[18] = ATCC13883, Table 2, broth dilution MIC in ug/ml, read-out: MIC K pneumonia ATCC 13883
[19] = Enterococcus faecalis, Table 1, range 64 down to 0.12 μg/ml, read-out: MIC E. faecalis ATCC 29212
[20] = Table 2, broth dilution MIC in ug/ml, read-out: MIC E faecalis ATCC 29212 VRE
[21] = Table 1, range 64 down to 0.12 μg/ml, read-out: MIC S. aureus ATCC 29213
[22] = Table 2, broth dilution MIC in ug/ml, read-out: MIC S aureus ATCC 29213 MSSA
[23] = Table 1, range 64 down to 0.12 μg/ml, read-out: MIC S. aureus ATCC 33591
[24] = Table 2, broth dilution MIC in ug/ml, read-out: MIC S aureus ATCC 33591 MRSA
[25] = ATCC 25921 / ATCC 25922, Table 2, broth dilution MIC in ug/ml, read-out: MIC E. coli ATCC 25921
[26] = ATCC25922, Table 1, range 64 down to 0.12 μg/ml, read-out: MIC E. coli ATCC 25922
[27] = Table 1, range 64 down to 0.12 μg/ml, read-out: MIC S. aureus BAA-39
[28] = Table 2, broth dilution MIC in ug/ml, read-out: MIC S aureus BAA-39 MDR
[29] = ATCC6301, Table 1, range 64 down to 0.12 μg/ml, read-out: MIC S. pneumoniae ATCC 6301
[30] = ATCC6301, Table 2, broth dilution MIC in ug/ml, read-out: MIC S pneumonia ATCC 6301 PSSP
[31] = Enterococcus faecium, Table 1, range 64 down to 0.12 μg/ml, read-out: MIC E. faecium ATCC 700221
[32] = Table 2, broth dilution MIC in ug/ml, read-out: MIC E faecium ATCC 700221 VRE

`c1cncc(Nc2ccc(-c3cc4ccc(C5=NCCN5)cc4[nH]3)cc2)c1` [SKI-4] gave an MIC (E. faecium CT-26; [7]) of 0.25 µg/mL (≈ 0.707 µM), an MIC (E. faecium CT-26; [8]) of 0.25 µg/mL (≈ 0.707 µM) and an MIC (E. faecium CT-26; CT26, Table 3, starting at 4 μg/ml, read-out: MIC E. faecium CT-26) of 0.25 µg/mL (≈ 0.707 µM). The MIC (K. pneumoniae ATCC 51503; [9]) was > 64 µg/mL, the MIC (K. pneumoniae ATCC 51503; [10]) was 64 µg/mL (≈ 181 µM) and the MIC (P. aeruginosa ATCC 9027; [11]) was 64 µg/mL (≈ 181 µM). The MIC (P. aeruginosa ATCC 9027; [12]) was > 64 µg/mL, the “Zone Size MRSA” value (MRSA) was 14 mm and the MIC (E. coli ECM 1694; [13]) was ≤ 0.12 µg/mL. The MIC (E. coli ECM 1694; [14]) was 0.12 µg/mL (≈ 0.34 µM), the MIC (E. coli ECM 1694; ECM1694, Table 3, starting at 4 μg/ml, read-out: MIC E. coli ECM 1694) was 0.12 µg/mL (≈ 0.34 µM) and the MIC [1, 15] was 0.5 µg/mL (≈ 1.41 µM). The MIC [1, 16] was 0.5 µg/mL (≈ 1.41 µM), the MIC ([1]; Table 3, starting at 4 μg/ml, read-out: MIC S. pneumoniae ATCC 700674) was 0.5 µg/mL (≈ 1.41 µM) and the MIC (K. pneumoniae ATCC 13883; [17]) was > 64 µg/mL. For the same compound, the MIC (K. pneumoniae ATCC 13883; [18]) was 64 µg/mL (≈ 181 µM), the “Zone Size M. smegmatis” value (M. smegmatis (mc2155)) was 27.6 mm and the MIC [2, 19] was 0.5 µg/mL (≈ 1.41 µM). The MIC [2, 20] was 0.5 µg/mL (≈ 1.41 µM), the “MIC E. faecalis ATCC 29212” value ([2]; Table 3, starting at 4 μg/ml) was 0.5 µg/mL (≈ 1.41 µM) and the MIC ([3]; Table 3, starting at 4 μg/ml, read-out: MIC S. aureus ATCC 29213) was 1 µg/mL (≈ 2.83 µM). For the same compound, the MIC [3, 21] was 2 µg/mL (≈ 5.66 µM), the MIC [3, 22] was 1 µg/mL (≈ 2.83 µM) and the MIC [4, 23] was 1 µg/mL (≈ 2.83 µM). For the same compound, the MIC [4, 24] was 1 µg/mL (≈ 2.83 µM), the “MIC S. aureus ATCC 33591” value ([4]; Table 3, starting at 4 μg/ml) was 1 µg/mL (≈ 2.83 µM) and the MIC (E. coli ATCC 25922; [25]) was 1 µg/mL (≈ 2.83 µM). The MIC (E. coli ATCC 25922; [26]) was 1 µg/mL (≈ 2.83 µM), the MIC (C. albicans ATCC 14053) was > 64 µg/mL and the MIC (S. aureus BAA-39 (MDR); [27]) was 1 µg/mL (≈ 2.83 µM). The MIC (S. aureus BAA-39 (MDR); [28]) was 1 µg/mL (≈ 2.83 µM), the “MIC S. aureus BAA-39” value (S. aureus BAA-39 (MDR); Table 3, starting at 4 μg/ml) was 1 µg/mL (≈ 2.83 µM) and the MIC [5, 29] was ≤ 0.12 µg/mL. The MIC [5, 30] was 0.06 µg/mL (≈ 0.17 µM), the MIC ([5]; ATCC6301, Table 3, starting at 4 μg/ml, read-out: MIC S. pneumoniae ATCC 6301) was 0.06 µg/mL (≈ 0.17 µM) and the MIC [6, 31] was 0.25 µg/mL (≈ 0.707 µM). For the same compound, the MIC ([6]; Enterococcus faecium, Table 3, starting at 4 μg/ml, read-out: MIC E. faecium ATCC 700221) was 0.25 µg/mL (≈ 0.707 µM) and the MIC [6, 32] was 0.25 µg/mL (≈ 0.707 µM).
`c1cc(-c2cc3ccc(C4=NCCN4)cc3[nH]2)ccc1Nc1ccc(N2CCOCC2)cc1` [SKI-11] was tested, and the MIC (E. faecium CT-26; [7]) was 1 µg/mL (≈ 2.29 µM), the MIC (E. faecium CT-26; [8]) was 1 µg/mL (≈ 2.29 µM) and the MIC (K. pneumoniae ATCC 51503; [9]) was > 64 µg/mL. The MIC (K. pneumoniae ATCC 51503; [10]) was 64 µg/mL (≈ 146 µM), the MIC (P. aeruginosa ATCC 9027; [11]) was 64 µg/mL (≈ 146 µM) and the MIC (P. aeruginosa ATCC 9027; [12]) was > 64 µg/mL. For the same compound, the “Zone Size MRSA” value (MRSA) was 11 mm, the MIC (E. coli ECM 1694; [13]) was 1 µg/mL (≈ 2.29 µM) and the MIC (E. coli ECM 1694; [14]) was 1 µg/mL (≈ 2.29 µM). For the same compound, the MIC [1, 15] was 16 µg/mL (≈ 36.6 µM), the MIC [1, 16] was 16 µg/mL (≈ 36.6 µM) and the MIC (K. pneumoniae ATCC 13883; [17]) was > 64 µg/mL. For the same compound, the MIC (K. pneumoniae ATCC 13883; [18]) was 64 µg/mL (≈ 146 µM), the “Zone Size M. smegmatis” value (M. smegmatis (mc2155)) was 11 mm and the MIC [2, 19] was 4 µg/mL (≈ 9.14 µM). It also gave an MIC [2, 20] of 4 µg/mL (≈ 9.14 µM), an MIC [3, 21] of 8 µg/mL (≈ 18.3 µM) and an MIC [3, 22] of 8 µg/mL (≈ 18.3 µM). It also gave an MIC [4, 23] of 4 µg/mL (≈ 9.14 µM), an MIC [4, 24] of 4 µg/mL (≈ 9.14 µM) and an MIC (E. coli ATCC 25922; [25]) of 16 µg/mL (≈ 36.6 µM). For the same compound, the MIC (E. coli ATCC 25922; [26]) was 16 µg/mL (≈ 36.6 µM), the MIC (C. albicans ATCC 14053) was 32 µg/mL (≈ 73.1 µM) and the MIC (S. aureus BAA-39 (MDR); [27]) was 4 µg/mL (≈ 9.14 µM). The MIC (S. aureus BAA-39 (MDR); [28]) was 4 µg/mL (≈ 9.14 µM), the MIC [5, 29] was 4 µg/mL (≈ 9.14 µM) and the MIC [5, 30] was 4 µg/mL (≈ 9.14 µM). For the same compound, the MIC [6, 31] was 1 µg/mL (≈ 2.29 µM) and the MIC [6, 32] was 1 µg/mL (≈ 2.29 µM).
